Laboratory results reported in patent US12569482B2, “Methods and compositions for treating idiopathic pulmonary fibrosis” (priority 2018, dated 2026).
Read-outs that look alike come from different tables or passages of the source.

How the values were obtained:
[1] = tested on: bleomycin-induced lung fibrosis; assay: Bleomycin induced IPF mouse model, Example 1 (oral nintedanib or fluconazole); format: in vivo, C57BL/6 mice; conditions: nintedanib 60 mg/kg
Description: Forty male C57BL/6 mice (Nanjing Biomedical Research Institute of Nanjing University) were randomly divided into two groups on Day 1, 10 animals for one group (referred to as Control group or Group 1) and 30 for the other. The animals in the Control group were administered intratracheally with PBS at a dose of 2 mL/kg while the others were administered intratracheally with bleomycin (Cat #HY-17565, MCE) at a dose of 0.66 mg/kg.
On Day 5, the mice with bleomycin treatment were divided into three groups at random (referred to as Group 2-4, n=10), and orally administered with vehicle (0.5% Methyl cellulose), nintedanib (Kangmanlin Co. Ltd., prepared in 0.5% Methyl cellulose with a final concentration of 6.0 mg/mL) and fluconazole (Kangmanlin Co. Ltd., prepared in 0.5% Methyl cellulose with a final concentration of 7.0 mg/mL) at daily doses of 10 mL/kg, 60 mg/kg and 70 mg/kg, respectively. The mice in the Control group was administered with vehicle (0.5% Methyl cellulose) at a daily dose of 10 mL/kg. Mice body weights were measured and recorded on Day 1, 5, 12, 19 and 25.
Two hours post drug administration on Day 25, all animals were anaesthetized with pentobarbital (i.p., 65 mg/kg). Blood samples were collected from orbital vein, put in tubes pre-coated with EDTA-K2 (KANG JIAN, Cat #KJ202), centrifuged at 4000×g for 10 minutes at 4° C. and then stored at −80° C. for determination of plasma drug levels. Then, the trachea was exposed, and bronchoalveolar lavage fluid (BALF) was collected from each mouse by injecting 0.3 mL of saline into trachea close to the larynx for three times. After BALF collection, mice were perfused with saline, and all four lung lobes were collected from each mouse, fixed in 10% NBF solution, embedded in paraffin and cut into 5 μm-thick sections. The sections were de-paraffinized with xylene and ethanol and subject to Haematoxylin-Eosin, Masson Trichrome and α-SMA IHC staining.
The bronchoalveolar lavage fluid of 20 μL was mixed with 20 μL of trypan blue to determine the cell number. Then, the cells in the BALF were concentrated using a Cytospinat at 1,000 rpm for 5 minutes, smeared on slides and then stained with Diff-Quik stain. Cell types (alveolar macrophages, neutrophils, or lymphocytes) were determined by counting at least 200 cells using a standard hemocytometer. The rest BALFs were centrifuged and supernatants were collected and stored at −80° C. for soluble collagen analysis.
The Haematoxylin-Eosin staining was used to identify and quantitate the inflammatory cells in the tissues, and the total inflammation area was calculated using the AperioScanScope software.
The sections with Masson Trichrome staining were scored for pulmonary fibrosis according to the modified Ashcroft fibrosis rating criteria in Table 1 below. Each lung lobe was divided into 4 parts according to the distance from the main bronchus, i.e., the upper, upper middle, lower middle and lower parts, which were scored separately and averaged later.
α-SMA is a well characterized marker in fibrosis. Immunohistochemistry staining of α-SMA is often used to characterize and quantitate the tissue fibrosis. Increased staining of α-SMA often reflects accumulation of collagen-producing myofibroblasts. Before α-SMA IHC staining, the de-paraffinized sections were treated with citrate antigen retrieval solution (0.01 N citrate buffer, pH 6.0) at 100° C. for 10 minutes, and then incubated with rabbit polyclonal anti-α-SMA (1:400, ab5694, Abcam) for 1 hour followed by goat anti-rabbit HRP (K4003, Dako). DAB substrate kit (DAB0031, Maixin, Shanghai) was used for chromogenic staining. All sections were further counter-stained with hematoxylin. […] α-SMA staining areas were calculated using the AperioImageScope program.
Statistical analysis was performed using student's T-test, one-way or two-way ANOVA followed by post-hoc Dunnett's test if significant. […] The difference was considered significant when p<0.05. *p<0.05, **p<0.01, ***[…].

[2] = Plasma drug levels, Example 2; format: in vivo, C57BL/6 mice; conditions: C57BL/6, mouse
Description: On Day 5, the mice with bleomycin treatment were divided into four groups at random (referred to as Group 2-5, n=10), and orally administered with vehicle (DMSO: PEG400=1:9, V/V), itraconazole (Kangmanlin Co. Ltd. prepared in DMSO/PEG400 with a final concentration of 1.5 mg/mL), nintedanib (Kangmanlin Co. Ltd., prepared in DMSO/PEG400 with a final concentration of 6.0 mg/mL), and itraconazole+nintedanib (prepared in DMSO/PEG400 with final concentrations of 1.5 mg/mL and 6.0 mg/mL) at daily doses of 10 mL/kg, 15 mg/kg, 60 mg/kg and 15+60 mg/kg, respectively. The mice in the Control group was administered with vehicle (DMSO/PEG400) at a daily dose of 10 mL/kg. Mice body weights were measured and recorded on Day 1, 5, 12, 19 and 21.
Two hours post drug administration on Day 21, all animals were anaesthetized with pentobarbital (i.p., 60 mg/kg). Blood sample, bronchoalveolar lavage fluid (BALF) and lung lobes were collected from each mouse and then processed following the protocols in Example 1.

COC(=O)c1ccc2c(c1)NC(=O)/C2=C(\Nc1ccc(N(C)C(=O)CN2CCN(C)CC2)cc1)c1ccccc1 [nintedanib]
reduction of lung inflammation area ([1]; Haematoxylin-Eosin staining, fluconazole 70 mg/kg p.o. daily): 84% | reduction of modified Ashcroft score ([1]; Masson Trichrome staining, fluconazole 70 mg/kg p.o. daily): 39% | anti-IPF activities / fibrosis related endpoint measurements (overall) ([1]; fluconazole 70 mg/kg daily dose): efficacious | total cell number and macrophage/monocyte number in BALF ([1]; oral daily Day 5-25): reduced cell number to some extent | BALF collagen levels ([1]; oral daily Day 5-25, fluconazole 70 mg/kg, vs bleomycin + vehicle): significantly reduced collagen levels | reduction of α-SMA staining area ([1]; α-SMA IHC, fluconazole 70 mg/kg p.o. daily): 39% | concentration at 2 h ([2]; oral, Day 21, itraconazole 15 mg/kg, nintedanib 60 mg/kg p.o. daily, read-out: two-hour post dosing plasma level, single agent): 310 ng/mL | concentration at 2 h ([2]; po, Day 21, 15+60 mg/kg p.o. daily, read-out: two-hour post dosing plasma drug level, itraconazole and nintedanib combined in administration): 397 ng/mL
